How the values were obtained:
[1] = Photostabilization of avobenzone in ethanol test solution under sun simulator
Protocol: A comparative photostabilization study was conducted comparing the photostabilization efficacy of the compound of Example 1, HSS, and the compound of Example 3 (Compound 3) with Octocrylene and Oxynex® ST in the stabilization of avobenzone. Samples for evaluation were prepared as follows:
Solutions in ethanol are prepared at respective concentrations of photosensitive materials and photostabilizer (typically 1:1 to 1:5 weight ratio). A base test solution of 3% Avobenzone+5% Octyl salicylate +10% Homoslate in Ethanol (the “Test Solution”) was made. Seven additional solutions were prepared by adding 2% Synoxyl™ HSS, 4% Synoxyl™ HSS, 4% Compound 3, 2% Octocrylene, 4% Octocrylene, 2% Oxynex® ST, and 2% dehydrozingerone methyl ether, respectively, to seven aliquots of the Test Solution.
(§1) Samples of each solution were prepared as ultrathin films between two quartz plates so as to obtain a minimum of 90% light transmission over the entire spectrum range of non absorbing chromophores. For example, ingredients which absorb only in the UV range were tested in formulation to obtain a minimum of 90% light transmission over the visible range. Each sample was then irradiated under sun simulator (754 W/m^2, 2 MED/h, UV dose from 20 to 100 Joules/cm^2) for various durations and light absorption spectra recorded for each sample at given times. The maximal absorption band λmax of each solution was determined before and after irradiation. The amount of the photosensitive materials remaining in solution after irradiation was calculated as the ratio of their two maximal absorptions.

[2] = solar simulator, total energy 100 mJ/cm^2; cited from earlier work
[3] = Hydrolytic stability of HSS in water at pH 7, 8, 9 (GC purity of recovered solid); type: physicochemical
Protocol: A series of hydrolytic stability tests were conducted on the compound of Example 1, HSS, as follows
pH7: 2.5 g of samples of HSS were placed in 100 ml round bottom flasks and 50 ml of double distilled water (pH 7) added to each. […] Thereafter each sample was filtered and the solids dried.
pH 8: 2.5 g of samples of HSS were placed in 100 ml round bottom flasks and 50 ml of double distilled water which had been adjusted to pH 8 using 0.01N NaOH solution added to each. […] Thereafter each sample was filtered and the solids dried.
pH 9: 2.5 g of samples of HSS were placed in 100 ml round bottom flasks and 50 ml of double distilled water which had been adjusted to pH 9 using 0.1N NaOH solution added to each. […] Thereafter each sample was filtered and the solids dried.
Each dried sample was analyzed by gas chromatography using an HP-5, 15 m, 0.53 mm id, capillary column with following set-up and test parameters: • Injection temperature: 250° C. • Oven temp: 50° C. (2 min), 10° C. to 260° C. (20 min) • Detector: FID • Detector temp: 260° C. • Carrier gas: Nitrogen • Column flow: 3.0 ml/min • Split ratio: 5:1 • Injection Volume: 1 micro liter • Sample concentration: 100 mg/ml in Methanol
The initial purity of the HSS used to make Samples A through F was 98.9% as determined by the aforementioned GC procedure.

[4] = Stability of HSS in the presence of iron and copper ions (UV absorbance at 319 nm); type: physicochemical; conditions: acetate buffer pH 6.5/ethanol, room temperature
Protocol: A base buffer solution was prepared by dissolving 13.608 g of sodium acetate in 1000 ml water and then adjusting the pH to 6.5 with acetic acid to form a 0.1 M acetate solution and then combining 75 parts by weight of this solution with 25 parts by weight ethanol.
A copper sulfate solution was prepared by dissolving 24.968 mg of copper sulfate (CuSO4.5H2O) in 100 ml of the base buffer solution.
A ferric sulfate solution was prepared by dissolving 16.22 mg of […] in 100 ml of the base buffer solution.
Finally a 100 μM test solution of HSS was prepared by dissolving 27.8 mg of HSS in 10 ml of the base buffer solution and then diluting 0.1 ml of this solution to 10 ml with additional base buffer solution.
Two test solutions were prepared as follows:
Copper Stability: 0.1 ml of the 100 μM solution of HSS was combined with 0.1 ml of the 10 μM CuSO4 solution in a 10 ml volumetric flask and additional base buffer solution added to make up to volume (to 10 ml). […]
The two test solutions and a sample of the HSS solution were then evaluated to assess what, if any, auto-oxidation of the HSS occurred in the presence of Cu^2+ and Fe^3+ ions. Stability or instability was evaluated by monitoring the absorbance at 319 nm for HSS at room temperature using a Shimadzu spectrophotometer.

[5] = Photostability of sunscreen formulation under sun simulator
Protocol: as §1
Three samples of this were taken for photostability testing according to the method of Example 6 above. The first sample, the Control, was not modified whereas the two remaining samples were modified by incorporating therein 2% of the compound of Example 1, HSS, and 4% octocrylene, respectively. The three formulations were prepared by first preparing each of Phase A1 and A2 and then dispersing Phase A2 in Phase A1 with agitation and heating to 75 C. Phase B was prepared and heated to 75° C. Phase B is then combined with the Phase A mixture with continuous stirring. The combination was subsequently homogenized for 2-3 minutes, and the batch cooled to 45° C. Phases C and were separately prepared and then mixed with the cooled batch until uniform.
As with Example 6, each was exposed to irradiation for various durations and the photostability tested. As evidenced from the results shown in Table 7, the stabilizer compound of the present invention performed markedly better than that of the conventional photostabilizer in the formulated product.

[6] = Stabilization of colored shampoo under fluorescent light (Delta E); conditions: 0.4 g HSS in 120 g shampoo, ambient temperature, 4 weeks
Protocol: The stabilizer compound according to Example 1, Synoxyl™ HSS, was added to a commercial shampoo formulation in order to evaluate its ability to reduce the amount of dye fading following exposure to fluorescent lighting. The sample was prepared by dissolving 0.4 g of HSS in 5 ml of ethanol and then adding the solution to 120 g of Suave® Natural Fresh Mountain Strawberry Shampoo with agitation and agitated for 15 minutes. A sample of the unmodified shampoo and the modified shampoo are then placed into 20 ml glass scintillation vials. Both sets of vials were weathered under fluorescent light aging at ambient temperature for 4 weeks. The L*a*b coordinates before and after exposure are measured using X-Rite 938 Spectro-densitometer. Color change is expressed as Delta E (ΔE) which is calculated by the formula: ΔE=[(ΔL*)^2+(Δa*)^2+(Δb*)^2]^1/2
Following the 4 week exposure the change in color, Delta E, was 21.6 for the unmodified shampoo and 12.3 for the modified shampoo.

[7] = Photostabilization of water-soluble dyes under solar simulated light; conditions: 0.05% stabilizer, FD&C Yellow No 5 or Red No 40, solar simulated light ~40 hours
Protocol: The stabilizer compound Synoxyl™ HSS according to Example 1 was added to the two dye compositions of Table 9, one containing Yellow No 5 and the other Red No 40, in order to evaluate its ability to reduce the extent of color fading resulting from their exposure to solar simulated light. In both formulations without the Synoxyl™ HSS, visible and marked color fading was noted following just 2 hours of light exposure.

[8] = cited from earlier work
[9] = 4% stabilizer in Test Solution (3% Avobenzone), UV dose 0 Joules/cm^2
[10] = 4% stabilizer in Test Solution (3% Avobenzone), UV dose 20 Joules/cm^2
[11] = 4% stabilizer in Test Solution (3% Avobenzone), UV dose 40 Joules/cm^2
[12] = 4% stabilizer in Test Solution (3% Avobenzone), UV dose 60 Joules/cm^2
[13] = 4% stabilizer in Test Solution (3% Avobenzone), UV dose 80 Joules/cm^2
[14] = 4% stabilizer in Test Solution (3% Avobenzone), UV dose 100 Joules/cm^2
[15] = 2% stabilizer in Test Solution (3% Avobenzone), UV dose 0 Joules/cm^2
[16] = 2% stabilizer in Test Solution (3% Avobenzone), UV dose 20 Joules/cm^2
[17] = 2% stabilizer in Test Solution (3% Avobenzone), UV dose 40 Joules/cm^2
[18] = 2% stabilizer in Test Solution (3% Avobenzone), UV dose 60 Joules/cm^2
[19] = 2% stabilizer in Test Solution (3% Avobenzone), UV dose 80 Joules/cm^2
[20] = 2% stabilizer in Test Solution (3% Avobenzone), UV dose 100 Joules/cm^2

SMILES: COc1ccc(C=C(C(C)=O)C(C)=O)cc1 [Compound 3, 3-(4-methoxybenzylidene)-2,4-pentanedione]
- % remaining [1, 9]: 100%
- % remaining [1, 10]: 96%
- % remaining [1, 11]: 90%
- % remaining [1, 12]: 80%
- % remaining [1, 13]: 73%
- % remaining [1, 14]: 68%
- melting point: 82 to 84 °C

SMILES: COc1ccc(/C=C/C(C)=O)cc1OC [Dehydrozingerone methyl ether, Dehydrozingerone methylether]
- % remaining [1, 15]: 100%
- % remaining [1, 16]: 59%
- % remaining [1, 17]: 26%
- stabilization of photosensitive compounds ([1]; summary statement): fails to stabilize photosensitive compounds

SMILES: Cc1ccc(C(C)C)cc2c(C)ccc1-2 [Guaiazulene]
- lost due to degradation [2]: ~90%

SMILES: COc1cc(C=C(C(C)=O)C(C)=O)cc(OC)c1OC [HSS, 3-(3,4,5-trimethoxybenzylidene)-2,4-pentanedione]
- hydrolytic stability ([3]; pH 7, 8, and 9 at 40° C. and at 60° C. for at least 8 hrs): stable
- GC purity (Area %) ([3]; pH 7, 40° C., 4 h): 98.9 Area %
- GC purity (Area %) ([3]; pH 7, 40° C., 8 h): 99.1 Area %
- GC purity (Area %) ([3]; pH 7, 60° C., 4 h): 98.6 Area %
- GC purity (Area %) ([3]; pH 7, 60° C., 8 h): 99.0 Area %
- GC purity (Area %) ([3]; pH 7, RT (~27° C.), 4 h): 98.8 Area %
- GC purity (Area %) ([3]; pH 7, RT (~27° C.), 8 h): 99.0 Area %
- GC purity (Area %) ([3]; pH 8, 40° C., 4 h): 98.9 Area %
- GC purity (Area %) ([3]; pH 8, 40° C., 8 h): 99.1 Area %
- GC purity (Area %) ([3]; pH 8, 60° C., 4 h): 99.2 Area %
- GC purity (Area %) ([3]; pH 8, 60° C., 8 h): 99.0 Area %
- GC purity (Area %) ([3]; pH 8, RT (~27° C.), 4 h): 98.7 Area %
- GC purity (Area %) ([3]; pH 8, RT (~27° C.), 8 h): 99.2 Area %
- GC purity (Area %) ([3]; pH 9, 40° C., 4 h): 99.0 Area %
- GC purity (Area %) ([3]; pH 9, 40° C., 8 h): 98.9 Area %
- GC purity (Area %) ([3]; pH 9, 60° C., 4 h): 99.1 Area %
- GC purity (Area %) ([3]; pH 9, 60° C., 8 h): 98.8 Area %
- GC purity (Area %) ([3]; pH 9, RT (~27° C.), 4 h): 98.8 Area %
- GC purity (Area %) ([3]; pH 9, RT (~27° C.), 8 h): 98.8 Area %
- stability (auto-oxidation) in the presence of iron and copper ions [4]: stable irrespective of the presence of iron and copper ions
- % remaining [1, 15]: 100%
- % remaining [1, 16]: 96%
- % remaining [1, 17]: 90%
- % remaining [1, 18]: 84%
- % remaining [1, 19]: 77%
- % remaining [1, 20]: 70%
- % remaining [1, 9]: 100%
- % remaining [1, 10]: 96%
- % remaining [1, 11]: 90%
- % remaining [1, 12]: 84%
- % remaining [1, 13]: 80%
- % remaining [1, 14]: 76%
- photostability of sunscreen formulation (% remaining) ([5]; 2% stabilizer in sunscreen with 2% butyl methoxydibenzoylmethane, UV dose 0 Joules/cm^2): 100%
- photostability of sunscreen formulation (% remaining) ([5]; 2% stabilizer in sunscreen with 2% butyl methoxydibenzoylmethane, UV dose 20 Joules/cm^2): 96%
- photostability of sunscreen formulation (% remaining) ([5]; 2% stabilizer in sunscreen with 2% butyl methoxydibenzoylmethane, UV dose 40 Joules/cm^2): 92%
- photostability of sunscreen formulation (% remaining) ([5]; 2% stabilizer in sunscreen with 2% butyl methoxydibenzoylmethane, UV dose 60 Joules/cm^2): 88%
- change in color, Delta E [6]: 12.3
- color fading of dye formulation [7]: failed to manifest color fading

SMILES: CCCCC(CC)COC(=O)C(C#N)=C(c1ccccc1)c1ccccc1 (stereo not drawn) [Octocrylene]
- % remaining [1, 15]: 100%
- % remaining [1, 16]: 92%
- % remaining [1, 17]: 80%
- % remaining [1, 18]: 68%
- % remaining [1, 19]: 64%
- % remaining [1, 20]: 58%
- % remaining [1, 9]: 100%
- % remaining [1, 10]: 94%
- % remaining [1, 11]: 83%
- % remaining [1, 12]: 73%
- % remaining [1, 13]: 67%
- % remaining [1, 14]: 60%
- photostability of sunscreen formulation (% remaining) ([5]; 4% stabilizer in sunscreen with 2% butyl methoxydibenzoylmethane, UV dose 0 Joules/cm^2): 100%
- photostability of sunscreen formulation (% remaining) ([5]; 4% stabilizer in sunscreen with 2% butyl methoxydibenzoylmethane, UV dose 20 Joules/cm^2): 94%
- photostability of sunscreen formulation (% remaining) ([5]; 4% stabilizer in sunscreen with 2% butyl methoxydibenzoylmethane, UV dose 40 Joules/cm^2): 89%
- photostability of sunscreen formulation (% remaining) ([5]; 4% stabilizer in sunscreen with 2% butyl methoxydibenzoylmethane, UV dose 60 Joules/cm^2): 82%

SMILES: CC1=C(/C=C/C(C)=C/C=C/C(C)=C\C(=O)O)C(C)(C)CCC1 [isotretinoin, 13-cis-retinoic acid]
- solubility in diethylhexyl diester of 2,6-naphthalene-dicarboxylic acid [8]: approximately 6.7 mg/ml

SMILES: CC1=C(/C=C/C(C)=C/C=C/C(C)=C/C(=O)O)C(C)(C)CCC1 [tretinoin, all-trans-retinoic acid]
- solubility in diethylhexyl diester of 2,6-naphthalene-dicarboxylic acid [8]: approximately 5.6 mg/ml
- solubility in water ([8]; water): practically insoluble

Source: patent publication US8617528B2, “Compositions and methods for stabilizing ingredients using 2,4-pentanedione compounds” (Sytheon Ltd., priority 2010, dated 2013)
